{
  "source": "patent US20210393574A1",
  "about": "“USE OF C[…] IN NEURO[…]” (HANYI BIO-TECHNOLOGY (BEIJING) CO., LTD., priority 2018, published 2021)",
  "key": {"[1]": {"system": "patients with diagnosed neurodermatitis", "assay": "Clinical study of cannabinoid compound for neurodermatitis", "format": "in vivo, human", "conditions": "2 weeks; for Cured (number of patients, efficacy index >90%) / effective (number of patients, efficacy index 20-60%) / excellently effective (number of patients, efficacy index 61-89%) / ineffective (number of patients, efficacy index <20%): orally once per day at bedtime, n=10; for clinical efficacy in neurodermatitis (in words): patients, orally once per day"}, "guinea pigs": {"system": "guinea pigs", "assay": "Impact on the itch-causing effect of histamine phosphate (itch-causing threshold)", "format": "in vivo", "conditions": "for alleviation of the itch-causing effect of histamine phosphate (in words): administration alone; for itch-causing threshold: oral, 3 consecutive days"}, "5-HT1A receptors": {"target": "T1, 5-HT1A receptors (Mus musculus, UniProt Q64264)", "T1 construct": "host or cells: mice (in vivo)", "T1 sequence (Q64264 1-421)": "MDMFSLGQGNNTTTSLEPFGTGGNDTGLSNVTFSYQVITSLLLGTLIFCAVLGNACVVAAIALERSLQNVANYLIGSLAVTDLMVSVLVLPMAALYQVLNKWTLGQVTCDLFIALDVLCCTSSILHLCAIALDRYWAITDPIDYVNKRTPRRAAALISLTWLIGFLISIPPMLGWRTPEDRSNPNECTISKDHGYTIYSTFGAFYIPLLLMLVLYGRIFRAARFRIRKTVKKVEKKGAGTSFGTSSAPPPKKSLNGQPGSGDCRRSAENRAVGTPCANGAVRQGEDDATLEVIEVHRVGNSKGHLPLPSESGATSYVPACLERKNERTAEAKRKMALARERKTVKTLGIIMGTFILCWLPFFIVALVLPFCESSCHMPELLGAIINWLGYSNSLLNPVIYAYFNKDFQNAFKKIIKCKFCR", "conditions": "possibly through activation of 5-HT1A receptors; cited from earlier work"}, "[2]": {"conditions": "200 mg of cannabidiol (Embodiment 1)"}, "[3]": {"conditions": "25 mg/d of doxepin hydrochloride"}, "[4]": {"conditions": "100 mg of tetrahydrocannabinol (Embodiment 3)"}},
  "note": "Structures can show the parent of a compound that is named as a salt.",
  "data": [
    {"smiles": "C=C(C)[C@@H]1CCC(C)=C[C@H]1c1c(O)cc(CCCCC)cc1O", "note": "[cannabidiol]", "values": [
      {"measurement": "Cured (number of patients, efficacy index >90%)", "setting": "[1]; [2]", "result": 1},
      {"measurement": "effective (number of patients, efficacy index 20-60%)", "setting": "[1]; [2]", "result": 6},
      {"measurement": "excellently effective (number of patients, efficacy index 61-89%)", "setting": "[1]; [2]", "result": 3},
      {"measurement": "ineffective (number of patients, efficacy index <20%)", "setting": "[1]; [2]", "result": 0},
      {"measurement": "clinical efficacy in neurodermatitis (in words)", "setting": "[1]", "result": "have clinical efficacy in neurodermatitis"},
      {"measurement": "alleviation of the itch-causing effect of histamine phosphate (in words)", "setting": "guinea pigs", "result": "significantly alleviates"},
      {"measurement": "itch-causing threshold", "setting": "guinea pigs; 50 mg/day", "result": "90.24 ± 45.98", "unit": "µL"},
      {"measurement": "itch-causing threshold", "setting": "guinea pigs; 200 mg/day", "result": "96.55 ± 42.34", "unit": "µL"},
      {"measurement": "itch-causing threshold", "setting": "guinea pigs; 400 mg/day", "result": "117.67 ± 44.67", "unit": "µL"},
      {"measurement": "antidepressant activity in mice (in words)", "setting": "5-HT1A receptors", "result": "has antidepressant activity in mice"}
    ]},
    {"smiles": "C=C(C)[C@@H]1CCC(C)=C[C@H]1c1c(O)cc(CCC)cc1O", "note": "[cannabidivarin]", "values": [
      {"measurement": "itch-causing threshold", "setting": "guinea pigs; 40 mg/day", "result": "56.23 ± 45.87", "unit": "µL"},
      {"measurement": "itch-causing threshold", "setting": "guinea pigs; 80 mg/day", "result": "59.55 ± 39.84", "unit": "µL"},
      {"measurement": "itch-causing threshold", "setting": "guinea pigs; 100 mg/day", "result": "56.89 ± 34.25", "unit": "µL"}
    ]},
    {"smiles": "CN(C)CCC(c1ccc(Cl)cc1)c1ccccn1", "note": "(stereo not drawn) [chlorphenamine maleate, reference compound]", "values": [
      {"measurement": "itch-causing threshold", "setting": "guinea pigs; 10 mg/day", "result": "127.03 ± 54.05", "unit": "µL"}
    ]},
    {"smiles": "CN(C)CCC=C1c2ccccc2COc2ccccc21", "note": "[doxepin hydrochloride, reference compound]", "values": [
      {"measurement": "Cured (number of patients, efficacy index >90%)", "setting": "[1]; [3]", "result": 0},
      {"measurement": "effective (number of patients, efficacy index 20-60%)", "setting": "[1]; [3]", "result": 3},
      {"measurement": "excellently effective (number of patients, efficacy index 61-89%)", "setting": "[1]; [3]", "result": 6},
      {"measurement": "ineffective (number of patients, efficacy index <20%)", "setting": "[1]; [3]", "result": 1}
    ]},
    {"smiles": "CCCCCc1cc(O)c2c(c1)OC(C)(C)[C@@H]1CCC(C)=C[C@@H]21", "note": "[tetrahydrocannabinol]", "values": [
      {"measurement": "Cured (number of patients, efficacy index >90%)", "setting": "[1]; [4]", "result": 1},
      {"measurement": "effective (number of patients, efficacy index 20-60%)", "setting": "[1]; [4]", "result": 6},
      {"measurement": "excellently effective (number of patients, efficacy index 61-89%)", "setting": "[1]; [4]", "result": 2},
      {"measurement": "ineffective (number of patients, efficacy index <20%)", "setting": "[1]; [4]", "result": 1},
      {"measurement": "clinical efficacy in neurodermatitis (in words)", "setting": "[1]", "result": "have clinical efficacy in neurodermatitis"},
      {"measurement": "alleviation of the itch-causing effect of histamine phosphate (in words)", "setting": "guinea pigs", "result": "significantly alleviates"},
      {"measurement": "itch-causing threshold", "setting": "guinea pigs; 40 mg/day", "result": "90.65 ± 32.08", "unit": "µL"},
      {"measurement": "itch-causing threshold", "setting": "guinea pigs; 80 mg/day", "result": "92.10 ± 50.78", "unit": "µL"},
      {"measurement": "itch-causing threshold", "setting": "guinea pigs; 100 mg/day", "result": "94.98 ± 48.96", "unit": "µL"}
    ]},
    {"smiles": "CCCc1cc(O)c2c(c1)OC(C)(C)[C@@H]1CCC(C)=C[C@@H]21", "note": "[tetrahydrocannabinovarin]", "values": [
      {"measurement": "itch-causing threshold", "setting": "guinea pigs; 5 mg/day", "result": "50.45 ± 45.67", "unit": "µL"},
      {"measurement": "itch-causing threshold", "setting": "guinea pigs; 10 mg/day", "result": "56.43 ± 34.18", "unit": "µL"},
      {"measurement": "itch-causing threshold", "setting": "guinea pigs; 20 mg/day", "result": "55.23 ± 40.92", "unit": "µL"}
    ]}
  ]
}
